Laboratory results published in PubChem BioAssay AID1963433 (Molecular Pharmacology Branch, DTP, NCI, 2024).
Values joined by “and” are separate entries in the source; they are usually repeats but may differ in a detail not shown here. Identical values can stand only once.

Tested on: 772245-204-R-J1-PDC complex spheroid growth
Assay: Anticancer human tumor 772245-204-R-J1-PDC patient-derived rhabdomyosarcoma cell line growth inhibition [Asc]
Details: for viability, T/C: stronger effect = lower value
How it was run: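 Stromal components (HUVEC and hMSC) are co-assembled with the cancer cells into multicellular spheroids. Drugs are then added singly or paired, at concentrations falling by half-log increments from a clinically achievable maximum, capped at 10 microM without known Cmax.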

[1] = curve of first compound, second compound 0.01 µM
[2] = curve of first compound, second compound 0.0316 µM
[3] = curve of first compound, second compound 0.1 µM
[4] = curve of first compound, second compound 0.316 µM
[5] = curve of first compound, second compound 1 µM
[6] = second compound 0.01 µM, first compound 0.0316 µM
[7] = second compound 0.01 µM, first compound 0.1 µM
[8] = second compound 0.01 µM, first compound 0.316 µM
[9] = second compound 0.01 µM, first compound 1 µM
[10] = second compound 0.0316 µM, first compound 0.0316 µM
[11] = second compound 0.0316 µM, first compound 0.1 µM
[12] = second compound 0.0316 µM, first compound 0.316 µM
[13] = second compound 0.0316 µM, first compound 1 µM
[14] = second compound 0.1 µM, first compound 0.0316 µM
[15] = second compound 0.1 µM, first compound 0.1 µM
[16] = second compound 0.1 µM, first compound 0.316 µM
[17] = second compound 0.1 µM, first compound 1 µM
[18] = second compound 0.316 µM, first compound 0.0316 µM
[19] = second compound 0.316 µM, first compound 0.1 µM
[20] = second compound 0.316 µM, first compound 0.316 µM
[21] = second compound 0.316 µM, first compound 1 µM
[22] = second compound 1 µM, first compound 0.0316 µM
[23] = second compound 1 µM, first compound 0.1 µM
[24] = second compound 1 µM, first compound 0.316 µM
[25] = second compound 1 µM, first compound 1 µM
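Note: compound exposure lasted seven days.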
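Throughout, for viability, T/C: 100% = DMSO vehicle control viability.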

Q: Which results are given for `C#Cc1c(F)ccc2cc(O)cc(-c3ncc4c(N5CC6CCC(C5)N6)nc(OCC56CCCN5CC(F)C6)nc4c3F)c12` (centres undefined) + CNC(C)C(=O)NC1CN(S(=O)(=O)c2cccc(S(=O)(=O)N3CCC4CCC(C(=O)NC(c5ccccc5)c5ccccc5)N4C(=O)C(NC(=O)C(C)NC)C3)c2)CCC2CCC(C(=O)NC(c3ccccc3)c3ccccc3)N2C1=O?
A: IC50 (curve of first compound, second compound 0.00316 µM): > 10 µM; IC50 [1]: > 10 µM; IC50 [2]: > 10 µM; IC50 [3]: > 10 µM; IC50 [4]: > 10 µM; IC50 [5]: > 10 µM; viability, T/C (second compound 0.00316 µM, first compound 0.0316 µM): 104%; viability, T/C (second compound 0.00316 µM, first compound 0.1 µM): 104%; viability, T/C (second compound 0.00316 µM, first compound 0.316 µM): 92.4%; viability, T/C (second compound 0.00316 µM, first compound 1 µM): 102%; viability, T/C (second compound 0.00316 µM, first compound 3.16 µM): 89.2%; viability, T/C (second compound 0.00316 µM, first compound 10 µM): 79%; viability, T/C [6]: 101%; viability, T/C [7]: 88%; viability, T/C [8]: 91%; viability, T/C [9]: 104%; viability, T/C (second compound 0.01 µM, first compound 3.16 µM): 86.5%; viability, T/C (second compound 0.01 µM, first compound 10 µM): 64.1%; viability, T/C [10]: 92.7%; viability, T/C [11]: 93.8%; viability, T/C [12]: 89.6%; viability, T/C [13]: 101%; viability, T/C (second compound 0.0316 µM, first compound 3.16 µM): 107%; viability, T/C (second compound 0.0316 µM, first compound 10 µM): 71.8%; viability, T/C [14]: 100%; viability, T/C [15]: 93.4%; viability, T/C [16]: 95.8%; viability, T/C [17]: 89%; viability, T/C (second compound 0.1 µM, first compound 3.16 µM): 101%; viability, T/C (second compound 0.1 µM, first compound 10 µM): 67.8%; viability, T/C [18]: 94.2%; viability, T/C [19]: 67.8%; viability, T/C [20]: 82%; viability, T/C [21]: 96.5%; viability, T/C (second compound 0.316 µM, first compound 3.16 µM): 92.4%; viability, T/C (second compound 0.316 µM, first compound 10 µM): 68%; viability, T/C [22]: 78.9%; viability, T/C [23]: 96.2%; viability, T/C [24]: 93.3%; viability, T/C [25]: 83%; viability, T/C (second compound 1 µM, first compound 3.16 µM): 80%; viability, T/C (second compound 1 µM, first compound 10 µM): 63.9%

Q: For `CCN1CCN(Cc2ccc(Nc3ncc(F)c(-c4cc(F)c5nc(C)n(C(C)C)c5c4)n3)nc2)CC1` + CNC(C)C(=O)NC1CN(S(=O)(=O)c2cccc(S(=O)(=O)N3CCC4CCC(C(=O)NC(c5ccccc5)c5ccccc5)N4C(=O)C(NC(=O)C(C)NC)C3)c2)CCC2CCC(C(=O)NC(c3ccccc3)c3ccccc3)N2C1=O, which IC50 [1] is on record?
A: > 1 µM

Q: And the IC50 [2]?
A: > 1 µM

Q: And the IC50 [3]?
A: > 1 µM

Q: What about the IC50 [4] of the same compound?
A: > 1 µM

Q: What about the IC50 [5] of the same compound?
A: > 1 µM

Q: What about the viability, T/C (second compound 0.01 µM, first compound 0.00316 µM) of the same compound?
A: 104%

Q: What about the viability, T/C (second compound 0.01 µM, first compound 0.01 µM) of the same compound?
A: 94.3%

Q: What about the viability, T/C [6] of the same compound?
A: 90.8%

Q: What about the viability, T/C [7] of the same compound?
A: 99.8%

Q: And the viability, T/C [8]?
A: 106%

Q: And the viability, T/C [9]?
A: 108%

Q: What about the viability, T/C (second compound 0.0316 µM, first compound 0.00316 µM) of the same compound?
A: 85.3%

Q: And the viability, T/C (second compound 0.0316 µM, first compound 0.01 µM)?
A: 95.3%

Q: And the viability, T/C [10]?
A: 96%

Q: And the viability, T/C [11]?
A: 94%

Q: And the viability, T/C [12]?
A: 102%

Q: And the viability, T/C [13]?
A: 103%

Q: What about the viability, T/C (second compound 0.1 µM, first compound 0.00316 µM) of the same compound?
A: 82.3%

Q: And the viability, T/C (second compound 0.1 µM, first compound 0.01 µM)?
A: 89.9%

Q: What about the viability, T/C [14] of the same compound?
A: 85.8%

Q: What about the viability, T/C [15] of the same compound?
A: 104%

Q: What about the viability, T/C [16] of the same compound?
A: 104%

Q: What about the viability, T/C [17] of the same compound?
A: 115%

Q: And the viability, T/C (second compound 0.316 µM, first compound 0.00316 µM)?
A: 103%

Q: What about the viability, T/C (second compound 0.316 µM, first compound 0.01 µM) of the same compound?
A: 94.1%

Q: What about the viability, T/C [18] of the same compound?
A: 96.1%

Q: And the viability, T/C [19]?
A: 89.4%

Q: And the viability, T/C [20]?
A: 92.8%

Q: What about the viability, T/C [21] of the same compound?
A: 104%

Q: What about the viability, T/C (second compound 1 µM, first compound 0.00316 µM) of the same compound?
A: 87.8%

Q: What about the viability, T/C (second compound 1 µM, first compound 0.01 µM) of the same compound?
A: 94.3%

Q: What about the viability, T/C [22] of the same compound?
A: 102%

Q: What about the viability, T/C [23] of the same compound?
A: 98.8%

Q: And the viability, T/C [24]?
A: 105%

Q: What about the viability, T/C [25] of the same compound?
A: 104%

Q: Which viability, T/C (compound 0.000316 µM) does the source give for `NC1CCC(NC2CC2c2ccccc2)CC1` (centres undefined) here?
A: 83.9% and 103% and 99%

Q: And the viability, T/C (compound 0.001 µM)?
A: 81.5% and 83.9% and 100%

Q: And the viability, T/C (compound 0.00316 µM)?
A: 99% and 87.2% and 107%

Q: What about the viability, T/C (compound 0.01 µM) of the same compound?
A: 83.2% and 87% and 97.1%

Q: And the viability, T/C (compound 0.0316 µM)?
A: 84.2% and 98.8% and 103%

Q: And the viability, T/C (compound 0.1 µM)?
A: 77.9% and 70.9% and 91.6%

Q: And the IC50 (curve of compound)?
A: > 0.1 µM

Q: Which results are given for `NC(=O)C(=Cn1cnc(-c2cc(C(F)(F)F)cc(C(F)(F)F)c2)n1)c1cncnc1` + Cc1c(S(C)(=O)=O)c(-c2cc(F)cc(N3CCN(c4ccc(NS(=O)(=O)c5ccc(NC(CCN6CCC(C(=O)OCCCP(=O)(O)O)CC6)CSc6ccccc6)c(S(=O)(=O)C(F)(F)F)c5)cc4)CC3)c2)c(-c2ccc(Cl)cc2)n1C(C)C?
A: IC50 [3]: 0.022 µM; IC50 [4]: 0.00658 µM; IC50 [5]: < 0.000949 µM; IC50 (curve of first compound, second compound 3.16 µM): < 0.000949 µM; IC50 (curve of first compound, second compound 10 µM): < 0.000949 µM; viability, T/C (second compound 0.1 µM, first compound 0.000949 µM): 80.2%; viability, T/C (second compound 0.1 µM, first compound 0.003 µM): 72.2%; viability, T/C (second compound 0.1 µM, first compound 0.00949 µM): 64%; viability, T/C (second compound 0.1 µM, first compound 0.03 µM): 43.2%; viability, T/C (second compound 0.1 µM, first compound 0.0949 µM): 29.6%; viability, T/C (second compound 0.1 µM, first compound 0.3 µM): 12.6%; viability, T/C (second compound 0.316 µM, first compound 0.000949 µM): 58.1%; viability, T/C (second compound 0.316 µM, first compound 0.003 µM): 64%; viability, T/C (second compound 0.316 µM, first compound 0.00949 µM): 42.1%; viability, T/C (second compound 0.316 µM, first compound 0.03 µM): 29.2%; viability, T/C (second compound 0.316 µM, first compound 0.0949 µM): 10.3%; viability, T/C (second compound 0.316 µM, first compound 0.3 µM): 3.73%; viability, T/C (second compound 1 µM, first compound 0.000949 µM): 41.2%; viability, T/C (second compound 1 µM, first compound 0.003 µM): 34.8%; viability, T/C (second compound 1 µM, first compound 0.00949 µM): 24%; viability, T/C (second compound 1 µM, first compound 0.03 µM): 8.43%; viability, T/C (second compound 1 µM, first compound 0.0949 µM): 4.25%; viability, T/C (second compound 1 µM, first compound 0.3 µM): 1.91%; viability, T/C (second compound 3.16 µM, first compound 0.000949 µM): 42.5%; viability, T/C (second compound 3.16 µM, first compound 0.003 µM): 27.8%; viability, T/C (second compound 3.16 µM, first compound 0.00949 µM): 23.9%; viability, T/C (second compound 3.16 µM, first compound 0.03 µM): 2.44%; viability, T/C (second compound 3.16 µM, first compound 0.0949 µM): 0.58%; viability, T/C (second compound 3.16 µM, first compound 0.3 µM): 0.81%; viability, T/C (second compound 10 µM, first compound 0.000949 µM): 32.9%; viability, T/C (second compound 10 µM, first compound 0.003 µM): 39.9%; viability, T/C (second compound 10 µM, first compound 0.00949 µM): 22.2%; viability, T/C (second compound 10 µM, first compound 0.03 µM): 5.99%; viability, T/C (second compound 10 µM, first compound 0.0949 µM): 0.9%; viability, T/C (second compound 10 µM, first compound 0.3 µM): 0.59%
